A short description of this data set: gradient 5% acetonitrile 3 min, to 50% in 2 min, to 85% in 15 min, held 3 min, 100 µL/min. The following applies: column: Zorbax Extend-C18 2.1 x 50 mm; eluents: water / acetonitrile, 0.1% formic acid. An outline of the steps:
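The system's dead and dwell volumes were 40 μL and 900 μL, with a Zorbax Extend-C18 column (2.1 × 50 mm, 1.8 μm) run at 100 μL/min in water and acetonitrile containing 0.1% formic acid each. Pure standards were analyzed in mixtures of ~100 molecules by HPLC–quadrupole time-of-flight mass spectrometry in positive and negative ionization mode. Retention time was assigned from computationally picked, manually inspected adduct peaks.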
`CCC(C)NC(=O)N1CC(c2nc(CCOCc3ccccc3)no2)C1` (centres undefined): the RP-LC retention time was 812 s.
With `Clc1ccc(Nc2nc(NCCCn3ccnc3)nc3nc[nH]c23)cc1`, the RP-LC retention time came out at 536 s.
For `Cc1nc([C@@H]2CN(C(=O)CCc3nc4ccccc4[nH]3)C[C@H]2C(N)=O)n[nH]1`, the RP-LC retention time is 506 s.
Next, `COc1cccc(-c2nc(NCc3cccnc3)ncc2C(=O)O)c1`: 576 s.
`COc1ccccc1CCC(=O)N(C)C[C@@]12CCC[C@H]1N(C)C(=O)CC2` showed an RP-LC retention time of 776 s.
Compound `O=C(c1ccccc1)N1CCC(n2c(-c3ccoc3)nc3cccnc32)C1` (centres undefined) showed an RP-LC retention time of 695 s.
In the case of `O=C(NCc1ccccc1)C1CCN(C(=O)C2Sc3ccccc3NC2=O)CC1` (centres undefined), the RP-LC retention time worked out at 741 s.
Compound `O=C(C1CC1)N1CCc2ccc(NS(=O)(=O)C3CCCCC3)cc21` had an RP-LC retention time of 830 s.
The compound `COc1ccc(NC(=O)N2CCC3(CC2)NC(=O)c2ccccc2O3)c(OC)c1` came in with an RP-LC retention time of 728 s.
In turn, `COc1ccc(CCC(=O)NCCCn2cccc2)cc1` registered an RP-LC retention time of 757 s.
Take `CCn1cc(CCN2CCN(C(=O)Cc3cccs3)CC2)c2cccnc21`: the RP-LC retention time stood at 590 s.
On to `O=C(Nc1ccc2cn[nH]c2c1)c1ccc(=O)[nH]n1`, for which the RP-LC retention time came to 567 s.
In turn, `COc1ccc(CN2CCC(NC(=O)CCc3c(C)noc3C)C2)cn1` (centres undefined) yielded an RP-LC retention time of 571 s.
Turning to `Cc1ccc(S(=O)(=O)N2CCc3c(c(-c4nnc(-c5ccccc5F)o4)nn3C)C2)cc1`, the RP-LC retention time came out at 955 s.
For `O=C(Cn1nc2n(c1=O)CCCCC2)Nc1cccc(F)c1` the value was 701 s; for `COc1ccccc1CNc1nc2ccccc2nc1NS(=O)(=O)c1cccs1`, 1050 s.
As for `Cc1ccc2oc(-c3noc(C(=O)NCc4ccc5c(c4)OCO5)n3)c(C)c2c1`, the RP-LC retention time amounted to 1120 s.
The compound `COc1ccc(NC(=O)Cn2c(C)cc(-c3nnc(C4CC4)o3)c2C)cc1Cl` showed an RP-LC retention time of 856 s.
`Cc1ccc(S(=O)(=O)N2CCc3c(c(-c4nnc(-c5ccc(F)cc5)o4)nn3C)C2)cc1` returned an RP-LC retention time of 971 s.
`COCCNC(=O)c1nnn(-c2cccc(Cl)c2)c1-c1ccncc1` came in with an RP-LC retention time of 690 s.
Compound `NC(=O)[C@H](Cc1ccccc1)NC(=O)[C@H](Cc1c[nH]c2ccccc12)NC(=O)[C@@H]1CCCN1C(=O)[C@@H](N)Cc1ccc(O)cc1` showed an RP-LC retention time of 680 s.
The compound `Cc1ccc(F)cc1S(=O)(=O)N1CCN(c2cnn3c(C)nnc3c2)CC1` displayed an RP-LC retention time of 616 s.
`O=C(COc1ccc(F)cc1)NCC1(c2cccs2)CC1` showed an RP-LC retention time of 882 s.
In the case of `O=C(CN1CCN(Cc2ccc(F)cc2)C1=O)NCc1ccc(N2CCCC2)cc1`, the RP-LC retention time stood at 761 s.
For the compound `Cc1cccc(Sc2nccnc2N2CCC(C(=O)NC3CCCC3)CC2)c1`, the RP-LC retention time is 1040 s.
The compound `CSc1ccc(CNC(=O)Cc2nnc(-c3ccc4ncccc4c3)o2)cc1` registered an RP-LC retention time of 716 s.
Next, `Cc1cnc(C2CN(CC3CCCCC3)C2)n1Cc1ccccc1`: 600 s; `O=C(c1ccco1)N1CCN(c2nc(-c3ccc(Cl)cc3)nc3ccccc23)CC1`: 747 s; `CC1=NS(=O)(=O)N(Cc2ccccc2)C=C1C(=O)OCc1ccc(C(F)(F)F)cc1`: 1190 s.
`Cc1ccc(CNC(=O)c2ccc3c(c2)nc2n3CCN(C(C)C)C2=O)cc1C` registered an RP-LC retention time of 767 s.
As for `COc1ccc(NC(=O)COc2nc(C)nc3ccccc23)c(OC)c1`, the RP-LC retention time came to 708 s.
Next, `CC(Oc1ccccc1)C(=O)N(C)CC1(C)CCOCC1` (centres undefined): 685 s; `CN(CCCNC(=O)C1CCCN(c2ncc(-c3cccc(F)c3)cn2)C1)c1ccccc1` (centres undefined): 838 s; `COc1cccc(NC(=O)Nc2cc3c(cc2Oc2ccccc2)n(C)c(=O)n3C)c1`: 804 s.
Consider `CCN(CC)CCOc1ccc(Nc2ncc3cc(-c4c(Cl)cccc4Cl)c(=O)n(C)c3n2)cc1`, for which the RP-LC retention time was determined as 783 s.
For `Cn1ccc2c(cc(C(=O)NCc3ccc(N4CCOCC4)cc3)n2C)c1=O` the value was 614 s; for `O=C(NC1CCCCC1)c1cccc(Nc2c(-c3ccccc3)nc3cnccn23)c1`, 838 s; for `CCOC(=O)c1c(C)c(CCC(=O)NCCN2CCOCC2)c(C)n1C`, 622 s.
In turn, `CCn1cc(CCN2CCC(C(=O)NC(C)C)CC2)c2cccnc21` displayed an RP-LC retention time of 567 s.
For `Cc1nc2cc(N3CCC(C(=O)Nc4ccc(N5CCOCC5)cc4)CC3)cnc2nc1C` the value was 649 s; for `O=c1ccc(-c2ccc3c(c2)OCO3)nn1CCc1nc(-c2ccccc2Br)no1`, 936 s; for `CCCCn1cc(S(=O)(=O)NC2CCCCC2)c2cccnc21`, 1010 s.
Turning to `COc1ccc(C(=O)NC2CCN(c3nnc4ccc(C(F)(F)F)cn34)CC2)cc1`, the RP-LC retention time turned out to be 751 s.
`CCOC(=O)C1CCN(C(=O)c2nc(-c3ccnc(N4CCCC4)c3)no2)CC1` gave an RP-LC retention time of 673 s.
`COc1ccc(CCc2nc3nccc(-c4ccc(OC)cc4F)n3n2)cc1` had an RP-LC retention time of 941 s.
For `CC1CCCN(CCNC(=O)C2CCc3nc(N4CCOCC4)ncc3C2)C1` (centres undefined) the value was 557 s.
Compound `CCNC(=O)N1CCC(c2noc(-c3ccccn3)n2)C1` (centres undefined) showed an RP-LC retention time of 594 s.
Consider `COCCn1cnc2c(-c3ccccc3)cn(CC(=O)NC3CCCC3)c2c1=O`, for which the RP-LC retention time came to 837 s.
In turn, `Cc1ccc(CNC(=O)c2ccc3ncnc(N4CCCC4)c3c2)cc1C` yielded an RP-LC retention time of 684 s.
`C=CCn1c(=O)c2c(nc3n2CC(C)CN3c2cc(C)cc(C)c2)n(C)c1=O` (centres undefined): the RP-LC retention time was determined as 1040 s.
For `COc1ccc(OC)c(NC(=O)c2cc(S(=O)(=O)N3CCCC(C)C3)cn2C)c1` (centres undefined) the value was 638 s; for `Cc1ccc(-c2cc(C(=O)O)c3ccc(Br)cc3n2)cc1C`, 1240 s; for `C[C@H]1CCCC(=O)CCC/C=C/c2c(O)cc(O)cc2C(=O)O1`, 888 s.
Compound `CCOc1ccc(NC(=O)Cc2c(C)nn(-c3nc(-c4ccc(F)cc4)cs3)c2C)cc1` yielded an RP-LC retention time of 1200 s.
Next, `CCCn1cc(CCNC(=O)Nc2cccc(Cl)c2C)c2cccnc21`: 889 s; `CCCn1c(=O)c(-c2ccc(C(=O)NC(C)C)cc2)nc2ccccc21`: 915 s.
As for `CCN(CC)c1nc2ccsc2c(=O)n1CCC(=O)NC1CCCC1`, the RP-LC retention time turned out to be 726 s.
Take `O=C(Nc1cccc(Br)c1)N1C[C@H]2C[C@H](C1)[C@H]1CCCC(=O)N1C2`: the RP-LC retention time was 708 s.
`CCCN(C)CC1(O)CCC2(CCN(C(=O)C3CCCC3)CC2)CC1` came in with an RP-LC retention time of 584 s.
The compound `O=C(NCCCN1CCCC1=O)C1c2ccccc2CC(=O)N1Cc1ccccc1` (centres undefined) returned an RP-LC retention time of 678 s.
`COc1ccc(-c2nnc(-c3ccccc3)o2)cc1S(=O)(=O)NC(C)C` displayed an RP-LC retention time of 870 s.
For `CC1=C(C(=O)Nc2cc3cn[nH]c3cc2F)C(c2ccc(C(F)(F)F)cc2)CC(=O)N1` (centres undefined), the RP-LC retention time was 734 s.
`COc1ccc(Cn2nc3ccc(S(=O)(=O)N4CCOCC4)cn3c2=O)cc1F` showed an RP-LC retention time of 811 s.
The compound `Cc1ccc(C(=O)N2CCCn3cc(-c4ccccc4)nc32)cn1` had an RP-LC retention time of 605 s.
For `O=C(CCSc1ccccc1)N1CCN(c2ccc3nnc(C4CC4)n3n2)CC1`, the RP-LC retention time came to 684 s.
For `O=C(Nc1ccc(F)c(Cl)c1)N1CCCC(Cn2c(C3CC3)nc3cccnc32)C1` (centres undefined) the value was 744 s; for `O=C(Nc1nccs1)C1CCN(C(=O)c2cccc(C(F)(F)F)c2)CC1`, 728 s.
The compound `COc1ccc(-c2cc3c(=O)n(Cc4nc(-c5ccccc5Br)no4)ncn3n2)cc1` gave an RP-LC retention time of 1090 s.
In turn, `O=C(C1=CCN(Cc2ccc(F)cc2)CC1)N1CCN(c2ccccc2Cl)CC1` had an RP-LC retention time of 723 s.
In turn, `Cc1cc(S(=O)(=O)N2CCN(C3CCN(C)C3=O)CC2)ccc1Cl` (centres undefined) gave an RP-LC retention time of 595 s.
Next, `COCC1(O)CCOC2(CCN(Cc3ccc(F)c(Cl)c3)CC2)C1` (centres undefined): 560 s.
`Cc1cncc(CN2CCC(=C3c4ccc(Cl)cc4CCc4cccnc43)CC2)c1` returned an RP-LC retention time of 659 s.
Next, `CC(C)Cn1c(=O)c(C(=O)NC2CCCCCC2)nc2cccnc21`: 1090 s; `CCOCCCNS(=O)(=O)c1cc(-c2cc(C)[nH]n2)sc1C`: 720 s.
Take `Cc1cccc(N(C)S(=O)(=O)c2ccc3c(c2)CCCC(=O)N3)c1`: the RP-LC retention time came out at 813 s.
For the compound `COc1ccc(-c2noc(-c3nc(-c4ccccc4OC)no3)n2)cc1OC`, the RP-LC retention time was determined as 1070 s.
`COc1ccc(-c2cc3c(=O)n(Cc4noc(CN5CCCCC5C)n4)ccn3n2)cc1` (centres undefined) showed an RP-LC retention time of 674 s.
Next, `O=c1c2sccc2n(Cc2nc(-c3ccc(F)c(Cl)c3)no2)c(=O)n1-c1ccc(F)cc1`: 1090 s; `COc1ccc(NS(=O)(=O)c2[nH]ncc2C(=O)NCc2ccc(SC)cc2)cc1`: 807 s.

The record behind these values is the METLIN SMRT retention time set (Domingo-Almenara et al. 2019).
